Laboratory results from patent US8435970B2 (priority 2006, dated 2013).
Converted amounts (≈) assume the structure as drawn. Where a name gives a salt, the structure may show the parent alone.

How the values were obtained:
[1] = tested on: Aurora (Histone H3 phosphorylation); test: Western blotting assay of downstream substrate phosphorylation; type: cell-based; details: western blot; concentration of inhibition
[2] = Gravimetric vapour sorption (GVS); type: physicochemical; details: for hygroscopic behaviour (GVS isotherm): 0 to 95% RH, 25° C.
Description: E. Gravimetric Vapour Sorption (GVS):
The sample size was ca. 10-25 mg. […] The sample was loaded and unloaded at room humidity and temperature (ca. 40% RH, 25° C.) and analysed afterwards by XRPD (using a Bruker AXS C2 GADDS system).

[3] = tested on: OVCAR-3 tumour cells; details: concentrations of 50 and 100 microM; PKB amplified; cited from earlier work
[4] = tested on: primary human mammary epithelial cells; test: In vitro studies with normal cells; details: 24 h compound treatment, cf. tumor cells
[5] = tested on: human tumour derived cell lines engrafted sub-cutaneously; details: nude mice, sub-cutaneous human tumour xenografts
[6] = citrate buffer, pH 4.5, aqueous buffer

O=C(Nc1c[nH]nc1-c1nc2cc(CN3CCOCC3)ccc2[nH]1)NC1CC1
Inhibition of Histone H3 phosphorylation (Aurora) [1]: 10 to 30 nM

O=C(Nc1c[nH]nc1-c1nc2cc(CN3CCOCC3)ccc2[nH]1)NC1CC1 [L-lactate salt]
hygroscopic behaviour (GVS isotherm) [2]: does not display hygroscopic behaviour

O=S(=O)(NCCNCC=C(c1ccccc1)c1ccccc1)c1cccc2cnccc12 [NL-71-101]
apoptosis induction [3]: induced apoptosis

O=C(Nc1c[nH]nc1-c1nc2cc(CN3CCOCC3)ccc2[nH]1)NC1CC1 [compound of formula (I)]
effect on normal checkpoint competent cells [4]: reversible G2/M arrest | anti-tumour action as a single agent [5]: anti-tumour action

O=C(Nc1c[nH]nc1-c1nc2cc(CN3CCOCC3)ccc2[nH]1)NC1CC1 [free base]
solubility [6]: ~80 mg/mL (≈ 210 mM) | hygroscopic behaviour (GVS isotherm) ([2]; listed as Free Base): hygroscopic | sample weight difference between 0% R.H and 95% R.H. ([2]; GVS): approximately 9%
